The values below are quoted from earlier work in patent US20230149278A1, “METHOD FOR DYEING KERATIN MATERIAL, COMPRISING THE USE OF AN ORGANOSILICON COMPOUND, A POLYSACCHARIDE, A COLORING COMPOUND AND A POST-TREATMENT AGENT” (Henkel AG & Co. KGaA, priority 2020, published 2023).

The conditions of the series: for solubility in water: 25° C.

For the compound `Nc1cc(S(=O)(=O)[O-])cc2cc(S(=O)(=O)[O-])c(N=Nc3ccccc3)c(O)c12.[Na+].[Na+]` [Acid Red 33, disodium salt of 5-amino-4-hydroxy-3-(phenylazo)-naphthalene-2,7-disulphonate], the solubility in water was 2,5 g/L.

As for `O=S(=O)([O-])c1ccc(N=Nc2c(O)ccc3ccccc23)cc1.[Na+]` [Acid Orange 7, sodium salt of 4-[(2-hydroxy-1-naphthyl)azo]benzene sulfonate], the solubility in water entry is given as “more than 7 g/L”.

As to `O=C([O-])c1c(Cl)c(Cl)c(Cl)c(Cl)c1-c1c2c(Br)cc(=O)c(Br)c-2oc2c(Br)c(O)cc(Br)c12.O=C([O-])c1c(Cl)c(Cl)c(Cl)c(Cl)c1-c1c2c(Br)cc(=O)c(Br)c-2oc2c(Br)c(O)cc(Br)c12.[Na+].[Na+]` [Acid Red 92, disodium salt of 3,4,5,6-tetrachloro-2-(1,4,5,8-tetrabromo-6-hydroxy-3-oxoxanthen-9-yl)benzoic acid], the solubility in water entry is listed as “greater than 10 g/L”.

As to `O=C(O)C1=NN(c2ccc(S(=O)(=O)O)cc2)C(=O)C1N=Nc1ccc(S(=O)(=O)O)cc1` (stereo not drawn) [Acid Yellow 23, 4,5-dihydro-5-oxo-1-(4-sulfophenyl)-4-((4-sulfophenyl)azo)-1H-pyrazole-3-carboxylic acid], the “solubility in water (in words)” value (water at 25° C.) is recorded as “readily soluble”.

For “mixture of the sodium salts of mono- and disulfonic acids of 2-(2-quinolyl)-1H-indene-1,3(2H)-dione [Acid Yellow 3]”, the solubility in water is 20 g/L.

For the compound `CCN(Cc1cccc(S(=O)(=O)[O-])c1)c1ccc(C(=C2C=CC(=[N+](CC)Cc3cccc(S(=O)(=O)[O-])c3)C=C2)c2ccccc2S(=O)(=O)[O-])cc1.[Na+].[Na+]` [Acid Blue 9], the solubility in water result was “more than 20 wt. %”.
